The target in assay [1] is purified human, His-tagged PRC2 complex (Homo sapiens, UniProt O75530+Q15910). The assay is described as follows: Hot Spot HMT assay: inhibition of PRC2 enzymatic activity (transfer of tritiated methyl from SAM to core histone, filter binding). The settings on record: Inhibition of PRC2-mediated enzymatic activity; 10 nM PRC2 complex, 0.05 mg/ml core histone H3, 1 uM 3H-SAM, 1 hr at 30°C. The assay is classed as biochemical. Put shortly: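 Five-subunit complex (His-EZH2, Flag-EED, His-SUZ12, His-AEBP2, His-RbAp48) at 10 nM with 0.05 mg/ml core histone H3, pH 8 Tris buffer, 1% DMSO; 20 min compound pre-incubation at 30°C. Started with 1 uM [3H]-SAM, 1 hr at 30°C; tritiated H3 counted by scintillation. Compounds diluted from 1.0 µM top concentration.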
Chain of purified human, His-tagged PRC2 complex (Q15910 whole entry): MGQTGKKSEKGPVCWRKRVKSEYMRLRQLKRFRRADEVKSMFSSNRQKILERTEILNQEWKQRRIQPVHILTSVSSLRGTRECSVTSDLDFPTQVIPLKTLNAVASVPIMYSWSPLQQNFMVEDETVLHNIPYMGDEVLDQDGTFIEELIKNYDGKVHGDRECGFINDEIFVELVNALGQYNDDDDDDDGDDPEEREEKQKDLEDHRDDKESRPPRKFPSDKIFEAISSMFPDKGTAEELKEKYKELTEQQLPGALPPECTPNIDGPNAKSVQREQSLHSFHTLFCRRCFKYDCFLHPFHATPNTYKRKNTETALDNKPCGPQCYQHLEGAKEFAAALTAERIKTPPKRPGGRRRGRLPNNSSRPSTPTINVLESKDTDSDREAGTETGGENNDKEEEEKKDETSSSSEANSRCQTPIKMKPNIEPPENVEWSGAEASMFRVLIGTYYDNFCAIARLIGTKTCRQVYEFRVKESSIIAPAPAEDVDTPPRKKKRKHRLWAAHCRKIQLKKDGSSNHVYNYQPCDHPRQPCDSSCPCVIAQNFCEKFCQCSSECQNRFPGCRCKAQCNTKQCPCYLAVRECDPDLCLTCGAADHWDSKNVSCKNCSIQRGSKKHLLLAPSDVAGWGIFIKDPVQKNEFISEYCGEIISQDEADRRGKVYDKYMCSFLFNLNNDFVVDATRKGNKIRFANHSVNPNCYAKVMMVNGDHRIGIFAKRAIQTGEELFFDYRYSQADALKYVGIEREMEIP
Chain of purified human, His-tagged PRC2 complex (O75530 whole entry): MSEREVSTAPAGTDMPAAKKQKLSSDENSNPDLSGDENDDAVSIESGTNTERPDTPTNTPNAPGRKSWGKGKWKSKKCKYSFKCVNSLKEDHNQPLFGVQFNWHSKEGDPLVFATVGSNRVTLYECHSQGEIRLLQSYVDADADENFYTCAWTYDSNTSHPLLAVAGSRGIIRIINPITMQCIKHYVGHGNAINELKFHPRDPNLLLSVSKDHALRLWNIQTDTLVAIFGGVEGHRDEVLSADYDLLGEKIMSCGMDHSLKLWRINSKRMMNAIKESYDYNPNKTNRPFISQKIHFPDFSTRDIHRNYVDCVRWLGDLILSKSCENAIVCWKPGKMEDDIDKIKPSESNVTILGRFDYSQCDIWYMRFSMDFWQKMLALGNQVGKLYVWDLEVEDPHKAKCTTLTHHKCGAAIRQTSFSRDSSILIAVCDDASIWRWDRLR
Chain of purified human, His-tagged PRC2 complex (Q15022 whole entry partner): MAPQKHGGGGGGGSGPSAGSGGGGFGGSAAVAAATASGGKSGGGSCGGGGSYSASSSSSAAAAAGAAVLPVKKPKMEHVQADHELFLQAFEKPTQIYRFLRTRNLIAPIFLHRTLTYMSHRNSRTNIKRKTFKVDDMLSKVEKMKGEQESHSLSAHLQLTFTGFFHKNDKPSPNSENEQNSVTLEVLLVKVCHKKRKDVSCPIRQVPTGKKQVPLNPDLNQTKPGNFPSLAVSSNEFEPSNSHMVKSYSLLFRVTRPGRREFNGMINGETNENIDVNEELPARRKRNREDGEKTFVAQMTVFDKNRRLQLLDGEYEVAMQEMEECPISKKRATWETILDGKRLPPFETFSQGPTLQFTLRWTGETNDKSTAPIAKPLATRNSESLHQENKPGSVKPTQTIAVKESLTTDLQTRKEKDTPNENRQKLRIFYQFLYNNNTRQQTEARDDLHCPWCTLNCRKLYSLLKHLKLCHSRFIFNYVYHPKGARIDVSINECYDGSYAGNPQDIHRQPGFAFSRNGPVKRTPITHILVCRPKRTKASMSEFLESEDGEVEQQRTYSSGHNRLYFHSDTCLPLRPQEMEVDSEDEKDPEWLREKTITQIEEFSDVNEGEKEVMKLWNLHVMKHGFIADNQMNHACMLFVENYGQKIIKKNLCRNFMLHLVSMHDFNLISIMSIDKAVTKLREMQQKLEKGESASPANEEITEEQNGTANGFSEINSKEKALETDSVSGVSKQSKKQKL
Chain of purified human, His-tagged PRC2 complex (Q6ZN18 whole entry partner): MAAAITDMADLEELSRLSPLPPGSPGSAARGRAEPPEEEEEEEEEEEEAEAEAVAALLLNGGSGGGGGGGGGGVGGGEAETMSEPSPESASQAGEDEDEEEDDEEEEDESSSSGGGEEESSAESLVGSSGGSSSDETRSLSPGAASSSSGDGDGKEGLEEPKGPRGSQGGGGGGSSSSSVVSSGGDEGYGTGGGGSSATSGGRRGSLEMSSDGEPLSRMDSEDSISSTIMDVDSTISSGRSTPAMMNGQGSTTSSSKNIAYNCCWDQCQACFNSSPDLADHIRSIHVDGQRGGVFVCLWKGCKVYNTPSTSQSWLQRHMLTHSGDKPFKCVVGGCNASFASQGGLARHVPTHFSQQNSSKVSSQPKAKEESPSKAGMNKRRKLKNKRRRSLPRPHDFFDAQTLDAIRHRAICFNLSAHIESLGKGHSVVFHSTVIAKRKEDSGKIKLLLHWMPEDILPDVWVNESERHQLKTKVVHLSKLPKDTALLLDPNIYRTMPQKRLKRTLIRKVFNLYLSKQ
Chain of purified human, His-tagged PRC2 complex (Q09028 whole entry partner): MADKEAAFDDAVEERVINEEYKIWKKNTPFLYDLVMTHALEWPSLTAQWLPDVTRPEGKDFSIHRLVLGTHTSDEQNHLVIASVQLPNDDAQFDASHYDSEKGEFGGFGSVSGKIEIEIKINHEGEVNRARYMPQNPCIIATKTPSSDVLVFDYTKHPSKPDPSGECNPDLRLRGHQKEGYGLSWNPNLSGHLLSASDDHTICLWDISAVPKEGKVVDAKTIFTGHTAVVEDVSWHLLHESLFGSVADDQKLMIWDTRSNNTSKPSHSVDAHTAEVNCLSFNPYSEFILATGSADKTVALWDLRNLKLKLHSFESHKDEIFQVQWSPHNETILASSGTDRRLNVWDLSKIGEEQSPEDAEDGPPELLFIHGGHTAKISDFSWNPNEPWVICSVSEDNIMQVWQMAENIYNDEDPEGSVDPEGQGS

For another assay, the system named is Karpas 422 cells. Nature of the assay: Karpas 422 cell viability, CTG (Cell Titre Glo) assay. Type of assay: cell-based, human. The settings on record: Homo sapiens; Inhibition of proliferation of Karpas 422 cells (EZH2 Y641N); viability measured Day 4, Day 7 or Day 11, time point of the tabulated values not stated. The procedure:
Karpas 422 cell line is a human B cell non-Hodgkin's lymphoma cell line established from a patient having DLBCL. This EZH2 heterozygotic cell line expresses a mutant form of EZH2 enzyme (Y641N) that increases histone H3 methylation and this mutation has been implicated in the tumorgenesis of lymphomas, such as DLBCL.
Karpas 422 cells (PHE cat no., 06101702) were cultured in RPMI medium supplemented with 20% fetal bovine serum and 1% penicillin/1% streptomycin and plated at a density of 1000 cells/90 µl/well in 96 well white assay plates. A dose response curve for compounds of the present invention was determined by adding a 10µl aliquot of stock solutions of varying concentrations of compounds to the same medium in each well, over a concentration range of 10µM using 3-fold dilutions to a final concentration of 1.5nM. The plates were incubated at 37° C for predetermined time periods, Day 4, Day 7, or Day 11, and the viability of the cells was measured using a CTG assay kit (Cell Titre Glo; Promega cat.no G7573) on Day 4 and Day 7 in accordance with the manufacturer's instructions.
For the viability assay for the Day 11 plates, the plates were subjected to centrifugation at 1100 rpm for five minutes on Day 7 and the supernatant was removed by aspiration. The cells were resuspended in 90 µl aliquot of the appropriate growth medium lacking the compound followed by addition of 10 µl of a 10X stock of the same compound at the same concentration. The viability of the Day 11 cells was measured using the CTG assay kit described above in accordance with the manufacturer's instructions. The IC50 values for each compound at each predetermined time point were calculated using Graph pad PRISM software and the results are shown in Table 15. A = ≤250 nM; B = […] - ≤500 nM; and C = >500 nM.

Each structure is given as a SMILES string. pIC50: −log10 of the molar value. Where only a bound is given, the exact number is not on record here.

What is called pIC50 is the IC50 on a negative log10 scale, so that one unit is a factor of ten. The low end stands for a high IC50, the high end for a low IC50. Consider `N#Cc1cn2c(NCc3c(F)ccc4c3CCO4)ncc(-c3ccc(C4CC4)nc3)c2n1` [Example 116, 8-(6-cyclopropylpyridin-3-yl)-5-(((5-fluoro-2,3-dihydrobenzofuran-4-yl)methyl)amino)imidazo[1,2-c]pyrimidine-2-carbonitrile], for which the values for the pIC50 (in assay [1]; in the assay on Karpas 422 cells) were over 7.00 and at least 6.60, respectively.

Regarding `COCCn1cc(-c2cnc(NCc3c(F)ccc4c3CCO4)n3cc(C#N)nc23)cn1` [Example 117, 5-(((5-fluoro-2,3-dihydrobenzofuran-4-yl)methyl)amino)-8-(1-(2-methoxyethyl)-1H-pyrazol-4-yl)imidazo[1,2-c]pyrimidine-2-carbonitrile], the pIC50 in assay [1] was 6.30 to 7.00; with Karpas 422 cells it was at least 6.60.

On to `N#Cc1cn2c(NCc3c(F)ccc4c3CCO4)ncc(-c3cnn(C4CCCCO4)c3)c2n1` (stereo not shown) [Example 118, 5-(((5-fluoro-2,3-dihydrobenzofuran-4-yl)methyl)amino)-8-(1-(tetrahydro-2H-pyran-2-yl)-1H-pyrazol-4-yl)imidazo[1,2-c]pyrimidine-2-carbonitrile], for which the values for the pIC50 (in assay [1]; with Karpas 422 cells) were over 7.00 and under 6.30, respectively.

Regarding `CCn1cc(-c2cnc(NCc3c(F)ccc4c3CCO4)n3cc(C#N)nc23)cn1` [Example 119, 8-(1-ethyl-1H-pyrazol-4-yl)-5-(((5-fluoro-2,3-dihydrobenzofuran-4-yl)methyl)amino)imidazo[1,2-c]pyrimidine-2-carbonitrile], the pIC50 is 6.30 to 7.00 in assay [1] and at least 6.60 in the assay with Karpas 422 cells.

Turning to `CC(C)(O)Cn1cc(-c2cnc(NCc3c(F)ccc4c3CCO4)n3cc(C#N)nc23)cn1` [Example 121, 5-(((5-fluoro-2,3-dihydrobenzofuran-4-yl)methyl)amino)-8-(1-(2-hydroxy-2-methylpropyl)-1H-pyrazol-4-yl)imidazo[1,2-c]pyrimidine-2-carbonitrile], the pIC50 in assay [1] was over 7.00; in the assay on Karpas 422 cells it was 6.30 to 6.60.

As for `CCOc1ncccc1-c1cnc(NCc2c(F)ccc3c2CCO3)n2cc(C#N)nc12` [Example 124, 8-(2-ethoxypyridin-3-yl)-5-(((5-fluoro-2,3-dihydrobenzofuran-4-yl)methyl)amino)imidazo[1,2-c]pyrimidine-2-carbonitrile], the pIC50 was over 7.00 in assay [1] and under 6.30 in the assay with Karpas 422 cells.

For `N#Cc1cn2c(NCc3c(F)ccc4c3CCO4)ncc(-c3ccc(N)nc3)c2n1` [Example 127, 8-(6-aminopyridin-3-yl)-5-(((5-fluoro-2,3-dihydrobenzofuran-4-yl)methyl)amino)imidazo[1,2-c]pyrimidine-2-carbonitrile], the pIC50 in assay [1] is over 7.00; in the assay with Karpas 422 cells it was 6.30 to 6.60.

In the case of `N#Cc1ccc(-c2cnc(NCc3c(F)ccc4c3CCO4)n3cc(C#N)nc23)cn1` [Example 128, 8-(6-cyanopyridin-3-yl)-5-(((5-fluoro-2,3-dihydrobenzofuran-4-yl)methyl)amino)imidazo[1,2-c]pyrimidine-2-carbonitrile], the figures for the pIC50 (in assay [1]; in the assay on Karpas 422 cells) were over 7.00 and under 6.30, respectively.

For the compound `Cc1ncc(-c2cnc(NCc3c(F)ccc4c3CCO4)n3cc(C#N)nc23)cc1N` [Example 129, 8-(5-amino-6-methylpyridin-3-yl)-5-(((5-fluoro-2,3-dihydrobenzofuran-4-yl)methyl)amino)imidazo[1,2-c]pyrimidine-2-carbonitrile], the pIC50 is over 7.00 in assay [1] and at least 6.60 in the assay on Karpas 422 cells.

Take `COc1ncc(-c2cnc(NCc3c(F)ccc4c3CCO4)n3cc(C#N)nc23)cc1C#N` [Example 130, 8-(5-cyano-6-methoxypyridin-3-yl)-5-(((5-fluoro-2,3-dihydrobenzofuran-4-yl)methyl)amino)imidazo[1,2-c]pyrimidine-2-carbonitrile]: the pIC50 is 6.30 to 7.00 in assay [1] and under 6.30 in the assay on Karpas 422 cells.

For `N#Cc1cn2c(NCc3c(F)ccc4c3CCO4)ncc(-c3cncc(C(F)(F)F)c3)c2n1` [Example 132, 5-(((5-fluoro-2,3-dihydrobenzofuran-4-yl)methyl)amino)-8-(5-(trifluoromethyl)pyridin-3-yl)imidazo[1,2-c]pyrimidine-2-carbonitrile], the pIC50 in assay [1] was under 6.30; in the assay with Karpas 422 cells, 6.30 to 6.60.

As for `CC(C)Oc1ccc(-c2cnc(NCc3c(F)ccc4c3CCO4)n3cc(C#N)nc23)cn1` [Example 133, 5-(((5-fluoro-2,3-dihydrobenzofuran-4-yl)methyl)amino)-8-(6-isopropoxypyridin-3-yl)imidazo[1,2-c]pyrimidine-2-carbonitrile], the pIC50 in assay [1] is over 7.00; in the assay on Karpas 422 cells, under 6.30.

Take `Cc1nc(N2CCN(C)CC2)ccc1-c1cnc(NCc2c(F)ccc3c2CCO3)n2cc(C#N)nc12` [Example 136, 5-(((5-fluoro-2,3-dihydrobenzofuran-4-yl)methyl)amino)-8-(2-methyl-6-(4-methylpiperazin-1-yl)pyridin-3-yl)imidazo[1,2-c]pyrimidine-2-carbonitrile]: the pIC50 is 6.30 to 7.00 in assay [1] and at least 6.60 in the assay on Karpas 422 cells.

`Cc1nc(N2CCN(C)CC2)ccc1-c1cnc(NCc2c(F)ccc3c2CCO3)n2cc(C(N)=O)nc12` [Example 138, 5-(((5-fluoro-2,3-dihydrobenzofuran-4-yl)methyl)amino)-8-(2-methyl-6-(4-methylpiperazin-1-yl)pyridin-3-yl)imidazo[1,2-c]pyrimidine-2-carboxamide]: the negative-log IC50 (pIC50) in assay [1] was over 7.00; in the assay with Karpas 422 cells it was at least 6.60.

For the compound `N#Cc1cn2c(NCc3c(F)ccc4c3CCO4)ncc(-c3cccnn3)c2n1` [Example 142, 5-(((5-fluoro-2,3-dihydrobenzofuran-4-yl)methyl)amino)-8-(pyridazin-3-yl)imidazo[1,2-c]pyrimidine-2-carbonitrile], the results for the pIC50 (in assay [1]; in the assay on Karpas 422 cells) were over 7.00 and at least 6.60, respectively.

`N#Cc1cn2c(NCc3c(F)ccc4c3CCO4)ncc(-c3ccc(CO)nc3)c2n1` [Example 147, 5-(((5-fluoro-2,3-dihydrobenzofuran-4-yl)methyl)amino)-8-(6-(hydroxymethyl)pyridin-3-yl)imidazo[1,2-c]pyrimidine-2-carbonitrile]: the pIC50 was 6.30 to 7.00 in assay [1] and at least 6.60 in the assay with Karpas 422 cells.

Regarding `CN(C)Cc1c(F)cc(-c2cnc(NCc3c(F)ccc4c3CCO4)n3cc(C#N)nc23)cc1F` [Example 149, 8-(4-((dimethylamino)methyl)-3,5-difluorophenyl)-5-(((5-fluoro-2,3-dihydrobenzofuran-4-yl)methyl)amino)imidazo[1,2-c]pyrimidine-2-carbonitrile], the pIC50 in assay [1] is 6.30 to 7.00; with Karpas 422 cells, at least 6.60.

(Values after patent EP4043466B1, “PRC2 INHIBITORS” (Mirati Therapeutics, Inc., priority 2018, dated 2019).)
